Converted amounts (≈) assume the structure as drawn. Like-named read-outs stand apart in the source and are kept apart here.
What was measured:
PDI = PDI (Homo sapiens, UniProt P07237); assay: Enzymatic assay for inhibition of PDI using insulin as substrate; assay type: biochemical
[1] = target: T1, human catalytic PDI A1 a domain (PDIa) (Homo sapiens, UniProt P07237); assay: Isothermal titration calorimetry (ITC) binding to PDIa
T1 construct: made in house; host or cells: Escherichia coli BL21-Gold (DE3)
Method: All ITC experiments were carried out at 25° C. on MicoCal Auto-ITC200 system (GE Healthcare). […] ITC titration experiments were carried out at 25° C. with 19 injections, 2 μl per injection, and 180 seconds between each injection. The reference cell power was set to 5 μcal/sec. A control experiment was performed for each compound, where each compound was titrated into buffer to account for heat released due to dilution. This background was subtracted from test data before a final dissociation constant was obtained. […] Gibbs free energy, ΔG, was calculated from equation ΔG=ΔH-TΔS. All other parameters, Ka, n, ΔH, ΔS, were determined directly from the titration data.
LOC14 analogs were designed and synthesized as described in the synthetic schemes. The analogs were evaluated for their binding to PDIa using isothermal titration calorimetry (ITC) (results of certain compounds are shown in FIGS. 1A-1E). Next, the analogs were tested for their ability to rescue PC12 cells from mHTT^Q103 induced cell death in a dose-dependent manner (results of certain compounds are shown in FIG. 2).

PC12 mHTTQ103 cells = assay: Rescue of PC12 cells from mHTTQ103-induced cell death; assay type: cell-based, rat; settings: for EC50: Rattus norvegicus
[2] = Solubility (stock solvent)
[3] = test system: uninduced PC12 cells not expressing mHTTQ103; assay: General cell toxicity in PC12 cell culture assay; assay type: cell-based
Method: Neuroprotection was assessed by each compound's ability to rescue cells from mutant-huntingtin-induced cell death (“Ind Q103” cells; blue). General cell toxicity of each compound was assessed in uninduced cells not expressing mutant-huntingtin protein (“Unind Q103” cells; red). NMP, DMSO, LOC14 in NMP and LOC14 in DMSO were used as controls.
Data from cells induced to express mHTT^Q103 (blue) and cells not expressing mHTT^Q103 (red) are plotted as mean percent of DMSO-treated uninduced cells±SD with n=3.
The follow-up testing of primary screen hits was performed in a similar way. Fresh powder stocks of primary hits were re-ordered from vendors, dissolved in DMSO and tested in a two-fold serial dilution across 10 wells in both tebufenozide-induced and uninduced PC12 mHTT^Q103 cells. Dose-response curves were plotted as mean±SD and fit to either four-parameter sigmoidal (for uninduced cells) or bell-shaped (induced) function using Prism (GraphPad Software).

physchem = settings: organic solvent or mixture
15N-labeled PDIa = target: T2, 15N-labeled PDIa (Homo sapiens, UniProt P07237); assay: 1H-15N HSQC NMR of PDIa; assay type: binding
T2 construct: His6 (N, cleaved yes); made in house; host or cells: Escherichia coli BL21-Gold (DE3), M9 minimal medium with 15NH4Cl
Method: The ^1H-^15N HSQC spectra were performed on Bruker Avance III 500 Ascend (500 MHz) spectrometers at 300 K. The uniformly ^15N-labeled PDIa was dissolved at 50 μM or 100 μM in 90% H2O/10% D20 (v/v), pH 5.1. The ^1H carrier frequency was positioned at the water resonance. The ^15N carrier frequency was positioned at 115 ppm. The spectral width in the ^1H dimension was 7500 Hz and the width in ω1 (^15N) dimension was 1824.6 Hz. Suppression of water signal was accomplished using the WATERGATE sequence. Heteronuclear decoupling was accomplished using GARP decoupling scheme.

[4] = rescue from mHTTQ103 induced cell death
[5] = Tables 5-13, solvent not given (DMSO in Table 1)
[6] = PC-12, Tables 5-13, PC12 cells, read-out: EC50
[7] = N/A = not active, read-out: ITC KD
[8] = Tables 5-13, NA = not active, read-out: Kd
[9] = PC-12, rescue from mHTTQ103 induced cell death, read-out: PC12 cells EC50
[10] = FIG. 1, PDI A1a titrated into compound in 0.8% NMP, read-out: Kd1

T2 sequence (P07237 18-134): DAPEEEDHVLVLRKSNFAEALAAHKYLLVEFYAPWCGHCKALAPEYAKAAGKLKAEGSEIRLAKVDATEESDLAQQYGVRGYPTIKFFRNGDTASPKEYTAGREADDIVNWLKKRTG
T1 sequence (P07237 18-134): as above
PDI, sequence (P07237 18-508): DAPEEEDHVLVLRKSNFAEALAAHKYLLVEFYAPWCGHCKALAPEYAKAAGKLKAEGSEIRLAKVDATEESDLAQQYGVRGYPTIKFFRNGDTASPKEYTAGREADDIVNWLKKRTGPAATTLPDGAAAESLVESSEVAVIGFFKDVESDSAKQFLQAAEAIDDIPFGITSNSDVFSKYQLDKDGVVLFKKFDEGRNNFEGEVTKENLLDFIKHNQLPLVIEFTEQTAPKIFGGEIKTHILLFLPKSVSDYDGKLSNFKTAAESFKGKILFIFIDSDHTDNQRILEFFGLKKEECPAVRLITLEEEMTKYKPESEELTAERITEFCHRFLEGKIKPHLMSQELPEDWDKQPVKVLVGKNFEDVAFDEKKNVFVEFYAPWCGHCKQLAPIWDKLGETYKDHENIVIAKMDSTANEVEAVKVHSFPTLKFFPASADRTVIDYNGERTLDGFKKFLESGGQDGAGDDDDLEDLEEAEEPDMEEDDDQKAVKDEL

SMILES | inhibition of enzymatic (reductase) activity of PDI (PDI) | Max Viability (%) (PC12 mHTTQ103 cells; Tables 5-13, PC12 cells) | PC12 cells Max % Viability (PC12 mHTTQ103 cells; [4]) | toxicity in PC12 cell culture assay [3] | ITC KD ([1]; N/A = not active) | EC50 (PC12 mHTTQ103 cells; [6]) | Solubility [2] | Kd [1, 8] | EC50 (PC12 mHTTQ103 cells; [9]) | Solubility (physchem) | other results
O=c1c2ccccc2sn1-c1ccccc1 [LC-24] | did not inhibit PDI's reductase activity | 31% | 30.83% |  |  |  |  |  |  |  | Kd ([1]; Tables 6, 11, 12, read-out: Kd (nM), first value of two-site binding): 8 nM; Kd ([1]; Tables 6, 11, 12, read-out: Kd (nM), second value of two-site binding): 1140 nM; Kd ([1]; read-out: KD2): 1140 nM; EC50 (PC12 mHTTQ103 cells; PC-12): 1130 nM; EC50 (PC12 mHTTQ103 cells; PC-12, read-out: PC12 cells EC50): 1130 nM
Cc1ccc(-n2sc3ccccc3c2=O)c(Br)c1 [LC-36] | did not inhibit PDI's reductase activity | 15% |  |  |  |  |  |  |  |  | Kd ([1]; read-out: KD2): 25 nM; Solubility [2, 5]: 100 mM (≈ 32 mg/mL)
O=c1[nH]sc2c(F)cccc12 [LC-40, 7-fluorobenzo[d]isothiazol-3(2H)-one] | able to inhibit the enzymatic activity of PDI | 72% | 72.31% | decreased cellular toxicity | KD = N/A irreversible or not active | 9320 nM | 100 mM in DMSO |  |  |  | binding to PDI by ITC [1]: showed no binding to the protein by ITC; Solubility [2, 5]: 100 mM (≈ 16.9 mg/mL)
Cc1cc(C)c2c(=O)[nH]sc2n1 [LC-50] |  | 65% | 65.19% | complete loss of toxicity |  | 5180 nM | 100 mM in DMSO | 3830 nM | 5180 nM | 100 mM (≈ 18 mg/mL) | Kd [1, 7]: 3830 nM
Cc1nc2s[nH]c(=O)c2c(C)c1C [LC-51] | did inhibit the enzymatic activity of PDI | 63% | 63.14% | complete loss of toxicity | KD = N/A irreversible or not active | 2200 nM |  |  |  |  | binding to PDI by ITC [1]: could not be detected by ITC; chemical shift changes in PDIa (1H-15N HSQC) (15N-labeled PDIa): induced the same chemical shifts in PDI as LOC14
Cc1nc2sn(CN3CCN(C(=O)C4CC4)CC3)c(=O)c2c(C)c1C [LC-52] | did inhibit the enzymatic activity of PDI | 68% | 68.30% | complete loss of toxicity | KD = N/A irreversible or not active | 3570 nM |  |  |  |  | binding to PDI by ITC [1]: could not be detected by ITC; chemical shift changes in PDIa (1H-15N HSQC) (15N-labeled PDIa): induced the same chemical shifts in PDI as LOC14
Cc1cc(C)c2c(=O)n(CN3CCN(C(=O)C4CC4)CC3)sc2n1 [LC-53] | did inhibit the enzymatic activity of PDI | 67% | 67.25% | complete loss of toxicity | KD = N/A irreversible or not active | 4250 nM |  |  | 4250 nM |  | binding to PDI by ITC [1]: could not be detected by ITC; chemical shift changes in PDIa (1H-15N HSQC) (15N-labeled PDIa): induced the same chemical shifts in PDI as LOC14
Cc1nnc2sn(CN3CCN(C(=O)C4CC4)CC3)c(=O)c2c1C [LC-59] |  | 59% | 59.20% |  |  | 10600 nM | 100 mM in DMSO | 8 nM | 10600 nM | 100 mM (≈ 34.7 mg/mL) | Kd [1, 7]: 8.2 nM
O=c1c2ccccc2sn1CN1CCC(N2CCCCC2)CC1 [LC-64, 2-([1,4′-bipiperidin]-1′-ylmethyl)benzo[d]isothiazol-3(2H)-one] |  | 81% | 81.43% |  |  | 393 nM |  | 1210 nM | 393 nM | 50 mM (≈ 16.6 mg/mL) | Kd ([1]; read-out: ITC KD): 1210 nM; Solubility (physchem; DMSO): 50 mM (≈ 16.6 mg/mL)
O=c1c2ccccc2sn1CN1CC[C@@H](O)C1 [LC-65, (R)-2-((3-hydroxypyrrolidin-1-yl)methyl)benzo[d]isothiazol-3(2H)-one] |  | 77% | 77.01% |  |  | 456 nM | 100 mM in DMSO | 162 nM | 456 nM | 100 mM (≈ 25 mg/mL) | Kd [1, 7]: 162 nM
O=c1c2cccnc2sn1CN1CCN(Cn2sc3ncccc3c2=O)CC1 [LC-68, 2,2′-(piperazine-1,4-diylbis(methylene))bis(isothiazolo[5,4-b]pyridin-3(2H)-one)] |  | 36% | 35.78% |  | Not active or irreversible | 2060 nM |  |  | 2060 nM |  | ITC binding ([1]; FIG. 1, PDI A1a titrated into compound in 0.8% NMP): no binding; Solubility (physchem; NMP (N-Methyl-2-Pyrrolidine)): 5 mM (≈ 2.07 mg/mL); Solubility (physchem; NMP): 5 mM (≈ 2.07 mg/mL)
O=c1c2cccc(F)c2sn1CN1CCN(Cn2sc3c(F)cccc3c2=O)CC1 [LC-69, 2,2′-(piperazine-1,4-diylbis(methylene))bis(7-fluorobenzo[d]isothiazol-3(2H)-one)] |  | 46% | 45.50% |  |  | 1970 nM |  | 700 nM | 1970 nM |  | Kd [1, 10]: 700 nM; Kd [1, 7]: 700 nM; Solubility (physchem; NMP (N-Methyl-2-Pyrrolidine)): 5 mM (≈ 2.24 mg/mL); Solubility (physchem; NMP): 5 mM (≈ 2.24 mg/mL)
Cc1cc(C)c2c(=O)n(CN3CCN(Cn4sc5nc(C)cc(C)c5c4=O)CC3)sc2n1 [LC-70, 2,2′-(piperazine-1,4-diylbis(methylene))bis(4,6-dimethylisothiazolo[5,4-b]pyridin-3(2H)-one)] |  | 59% | 59.18% |  |  | 3090 nM |  | 3800 nM | 3090 nM |  | Kd [1, 10]: 3800 nM; Kd ([1]; read-out: ITC KD): 3800 nM; Solubility (physchem; NMP (N-Methyl-2-Pyrrolidine)): 5 mM (≈ 2.35 mg/mL); Solubility (physchem; NMP): 5 mM (≈ 2.35 mg/mL)
O=c1c2cccnc2sn1CO [LC-73, 2-(hydroxymethyl)isothiazolo[5,4-b]pyridin-3(2H)-one] |  | 63% | 63.16% |  |  | 2480 nM | 100 mM in DMSO |  | 2480 nM | 100 mM (≈ 18.2 mg/mL) | Kd ([1]; FIG. 1, PDI A1a titrated into compound in DMSO, read-out: Kd): 9.8 nM; Kd ([1]; ITC assay, read-out: KD): 10 nM
